Legend:
Assay type in all cases: cell-based
LOXL1 = experiment: Real-time and western blot of LOXL1 mRNA/protein and elastin dimer in human fibroblast lines HF1 and HF2; details: for expression of LOXL1 (mRNA and protein): 4 μM emodin, overnight; for formation of elastin dimer intermediate: different emodin concentrations
Protocol: Two human fibroblast cell lines integrating PLOXL1-ZsGreen components (HF1 and HF2) are inoculated at a density of 20%, incubated overnight (37° C., 5% CO2). […] After cultured overnight, Real-time and western blot are used to detect the mRNA level and protein level in LOXL1. Wherein, the one added DMSO solvent only works as the control, and is normalized to 1, data are calculated as Mean±SEM of three independent test values, *P<0.05; **P<0.001; ***P<0.0001. […] In these two cell lines, the expression of LOXL1 is not only linearly correlated to transcriptional level, but to LOXL1 protein level, and accomplishing elastin dimer intermediates formation.

human LOXL1 promoter = experiment: PLOXL1-ZsGreen reporter: green fluorescence intensity of human fibroblasts
Protocol: S3. Drug screening: Inoculate the said human fibroblasts integrating PLOXL1-ZsGreen component into culture medium, incubate overnight. Dissolve the analyte into DMSO as 0.2-2 mg/ml, and dilute into 1:200, then add it into the cell culture medium, and its final concentration will be […]. After incubating overnight (37° C., 5% CO2), detect the green fluorescence intensity of these cells. The screening method of present invention decides if the analyte added stimulates the activity of human LOXL1 promoter effectively, and increases the expression of LOXL1, thus promotes the crosslinking of extracellular matrix protein, by checking if the green fluorescence intensity is increased.
Inoculate the said human fibroblasts integrating PLOXL1-ZsGreen component into culture medium with a density of 20%, keep adherent overnight. […] After culturing overnight (37° C., 5% CO2), detect the green fluorescence intensity of these cells. The present invention decides if the Chinese herbal extracts added stimulate the activity of human LOXL1 promoter effectively by checking if the green fluorescence intensity is increased. […]
Inoculate the said stably expressing human fibroblast strain integrating a expression cassette of PLOXL1-ZsGreen with a 20% density into media, keep adherent overnight (37° C., 5% CO2), detect the green fluorescence intensity of these cells. […]

[1] = system: LOXL1 in human skin tissue; experiment: Real-time and western blot of LOXL1 and elastin monomer/dimer in cultured human skin tissue
Protocol: Emodin was added into the culture medium of human skin tissue. Detect the LOXL1 level in human skin tissue and elastin crosslinking level during 1˜3 days after emodin treatment. Detect the mRNA level and protein level of LOXL1 using Real-time and western blot methods, as well as detecting the amount of monomer and dimer of elastin. Wherein, the control with DMSO solvent added only is normalized to 1, data are calculated as Mean±SEM of three independent test values. *p<0.01, ***P<0.0001.

[2] = system: extracellular matrix crosslinking in human fibroblasts; experiment: ELISA of desmosine and hydroxylproline (elastin and collagen crosslinking) in human fibroblast lines HF1 and HF2; details: different emodin concentrations
Protocol: Two human fibroblast cell lines integrating PLOXL1-ZsGreen components (HF1 and HF2) are inoculated at a density of 20%, incubated overnight (37° C., 5% CO2). Then, emodin is added into the culture medium. Detect the desmosine by ELISA method to determine the effects of different emodin concentrations to elastin crosslinking. This example determines the effects of different emodin concentrations to collagen crosslinking by detecting the contents of hydroxylproline through ELISA method. […] Thus, emodin promotes the crosslinking of extracellular matrix protein in human fibroblasts widely.

Cc1cc(O)c2c(c1)C(=O)c1cc(O)cc(O)c1C2=O [emodin]
expression of LOXL1 (mRNA and protein) (LOXL1; HF1 cell line, FIGS. 5a1-5a2): significantly promotes the expression of LOXL1 | formation of elastin dimer intermediate (LOXL1; HF1 cell line, FIG. 5a3): promotion of different emodin concentration to the expression of LOXL1 and the formation of elastin dimer intermediate | expression of LOXL1 (mRNA and protein) (LOXL1; HF2 cell line, FIGS. 5b1-5b2): significantly promotes the expression of LOXL1 | formation of elastin dimer intermediate (LOXL1; HF2 cell line, FIG. 5b3): promotion of different emodin concentration to the expression of LOXL1 and the formation of elastin dimer intermediate | activity of human LOXL1 promoter (ZsGreen fluorescent intensity) (human LOXL1 promoter; Example 4, FIG. 4a, 4 μM emodin): obvious promotion to the activity of human LOXL1 promoter | fluorescent intensity of ZsGreen vs emodin concentration (human LOXL1 promoter; Example 4, FIG. 4c, DMSO control normalized to 1): increases with the concentration of emodin, with a significant linear relationship | LOXL1 protein level ([1]; 4 μM emodin, FIG. 7b): significantly promotes the LOXL1 protein level | elastin intermediate dimers ([1]; 4 μM emodin, FIG. 7c): increase of intermediate dimers | elastin monomers ([1]; 4 μM emodin, FIG. 7c): decrease of elastin monomers | LOXL1 mRNA level ([1]; different emodin concentrations, 1-3 days, FIG. 7a): increases as the emodin concentration increases | desmosine intermediates (elastin crosslinking) ([2]; HF1, FIG. 6a1): increase with the increasing concentrations of emodin added | hydroxylproline intermediate (collagen crosslinking) ([2]; HF1, FIG. 6a2): also increases with the increasing concentrations of emodin added | desmosine intermediates (elastin crosslinking) ([2]; HF2, FIG. 6b1): increase with the increasing concentrations of emodin added | hydroxylproline intermediate (collagen crosslinking) ([2]; HF2, FIG. 6b2): also increases with the increasing concentrations of emodin added

From patent publication US9481915B2, “Method of screening drugs that promote LOXL1 expression” (SHANGHAI TENTH PEOPLE'S HOSPITAL, priority 2012, dated 2016)
